Assays:
Acetylcholinesterase = Acetylcholinesterase (Homo sapiens, UniProt P22303); test: Inhibition of human serum recombinant AChE using acetylthiocholine iodide as a substrate incubated for 20 mins by DTNB reagent based Ellman's method; assay type: cell-free
[1] = biological target: Amyloid-beta precursor protein (Homo sapiens) (UniProt P05067); test: Inhibition of amyloid beta (1 to 40) (unknown origin) self aggregation at 10 uM incubated for 2 hrs by ThT fluorescence assay
[2] = biological target: Cholinesterase (Homo sapiens) (UniProt P06276); test: Inhibition of human serum recombinant BChE using butyrylthiocholine iodide as a substrate at 10 uM incubated for 20 mins by DTNB reagent based Ellman's method; assay type: cell-free
[3] = biological target: T1, MAO-A (amine oxidase [flavin-containing] A) (Homo sapiens, UniProt P21397); test: Inhibition of human recombinant MAO-A assessed as reduction in 4-hydroxyquinoline level using kynuramine as a substrate at 10 uM preincubated for 5 mins followed by substrate addition by spectrofluorimetric analysis; settings: probe kynuramine
T1 sequence (P21397 whole entry): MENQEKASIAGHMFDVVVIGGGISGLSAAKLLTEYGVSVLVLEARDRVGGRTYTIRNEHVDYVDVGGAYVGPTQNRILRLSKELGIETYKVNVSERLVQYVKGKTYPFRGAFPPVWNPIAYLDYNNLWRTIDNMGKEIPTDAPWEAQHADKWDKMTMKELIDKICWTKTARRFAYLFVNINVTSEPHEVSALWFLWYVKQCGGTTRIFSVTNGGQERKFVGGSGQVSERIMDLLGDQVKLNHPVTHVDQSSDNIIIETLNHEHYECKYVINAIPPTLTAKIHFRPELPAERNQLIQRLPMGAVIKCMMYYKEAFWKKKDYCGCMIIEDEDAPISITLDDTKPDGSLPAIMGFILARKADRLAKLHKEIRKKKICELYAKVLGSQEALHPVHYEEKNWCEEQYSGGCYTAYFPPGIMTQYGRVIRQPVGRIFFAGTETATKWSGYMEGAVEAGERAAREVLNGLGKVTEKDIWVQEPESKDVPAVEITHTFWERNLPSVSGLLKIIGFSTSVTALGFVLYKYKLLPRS

[4] = biological target: T2, Amine oxidase [flavin-containing] B (Homo sapiens, UniProt P27338); test: Inhibition of human recombinant MAO-B assessed as reduction in 4-hydroxyquinoline level using kynuramine as a substrate preincubated for 5 mins followed by substrate addition by spectrofluorimetric analysis
T2 sequence (P27338 whole entry): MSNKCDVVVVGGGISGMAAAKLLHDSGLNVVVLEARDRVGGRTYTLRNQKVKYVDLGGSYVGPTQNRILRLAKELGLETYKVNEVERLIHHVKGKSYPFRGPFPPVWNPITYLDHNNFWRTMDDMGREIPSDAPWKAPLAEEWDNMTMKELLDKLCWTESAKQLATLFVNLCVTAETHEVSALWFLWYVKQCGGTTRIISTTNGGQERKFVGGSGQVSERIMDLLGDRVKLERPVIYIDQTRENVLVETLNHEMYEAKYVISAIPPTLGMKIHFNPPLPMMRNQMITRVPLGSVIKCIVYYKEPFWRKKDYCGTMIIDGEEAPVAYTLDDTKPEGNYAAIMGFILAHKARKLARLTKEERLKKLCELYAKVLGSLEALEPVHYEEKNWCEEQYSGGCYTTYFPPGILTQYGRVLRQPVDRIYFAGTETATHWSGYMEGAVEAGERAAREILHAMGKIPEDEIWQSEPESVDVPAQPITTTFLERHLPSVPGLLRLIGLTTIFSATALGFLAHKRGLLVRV

[5] = biological target: T3, Amine oxidase [flavin-containing] A (Homo sapiens, UniProt P21397); test: Inhibition of human recombinant MAO-A assessed as reduction in 4-hydroxyquinoline level using kynuramine as a substrate preincubated for 5 mins followed by substrate addition by spectrofluorimetric analysis
T3 sequence (P21397 whole entry): T1 sequence (P21397 whole entry)

Cholinesterase (Homo sapiens), sequence (P06276 whole entry): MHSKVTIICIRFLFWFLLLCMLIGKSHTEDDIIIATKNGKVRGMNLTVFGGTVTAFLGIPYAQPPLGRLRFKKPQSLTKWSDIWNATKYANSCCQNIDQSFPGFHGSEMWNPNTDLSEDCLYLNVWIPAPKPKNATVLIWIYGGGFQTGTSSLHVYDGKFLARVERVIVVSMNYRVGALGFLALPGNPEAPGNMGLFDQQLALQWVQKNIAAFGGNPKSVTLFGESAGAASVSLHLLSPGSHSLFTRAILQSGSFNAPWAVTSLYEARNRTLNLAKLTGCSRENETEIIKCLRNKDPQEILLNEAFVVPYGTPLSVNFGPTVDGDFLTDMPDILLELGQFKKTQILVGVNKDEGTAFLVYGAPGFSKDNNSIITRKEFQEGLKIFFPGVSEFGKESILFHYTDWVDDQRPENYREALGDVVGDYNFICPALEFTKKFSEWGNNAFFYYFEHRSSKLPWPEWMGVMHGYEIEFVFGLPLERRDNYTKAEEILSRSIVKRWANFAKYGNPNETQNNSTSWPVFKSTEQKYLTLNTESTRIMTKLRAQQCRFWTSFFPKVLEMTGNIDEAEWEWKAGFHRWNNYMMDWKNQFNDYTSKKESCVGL
Acetylcholinesterase, sequence (P22303 whole entry): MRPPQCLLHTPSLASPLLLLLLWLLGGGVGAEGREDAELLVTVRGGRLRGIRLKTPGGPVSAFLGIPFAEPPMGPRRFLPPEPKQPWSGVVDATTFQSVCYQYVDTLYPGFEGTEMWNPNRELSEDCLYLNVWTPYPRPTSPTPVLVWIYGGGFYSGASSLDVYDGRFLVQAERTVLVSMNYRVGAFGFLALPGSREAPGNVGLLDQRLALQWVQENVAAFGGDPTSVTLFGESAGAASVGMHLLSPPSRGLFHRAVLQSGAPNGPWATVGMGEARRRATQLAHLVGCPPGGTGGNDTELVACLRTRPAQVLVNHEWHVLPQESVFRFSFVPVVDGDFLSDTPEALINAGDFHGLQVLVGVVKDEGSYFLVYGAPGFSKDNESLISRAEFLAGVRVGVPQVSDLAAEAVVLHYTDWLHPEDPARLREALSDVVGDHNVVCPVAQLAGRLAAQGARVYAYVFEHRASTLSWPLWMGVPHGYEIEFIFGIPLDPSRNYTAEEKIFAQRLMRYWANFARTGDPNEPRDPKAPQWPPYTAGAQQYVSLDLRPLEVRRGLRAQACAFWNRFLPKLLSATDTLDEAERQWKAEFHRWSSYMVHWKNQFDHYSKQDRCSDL
Amyloid-beta precursor protein (Homo sapiens), sequence (P05067 whole entry): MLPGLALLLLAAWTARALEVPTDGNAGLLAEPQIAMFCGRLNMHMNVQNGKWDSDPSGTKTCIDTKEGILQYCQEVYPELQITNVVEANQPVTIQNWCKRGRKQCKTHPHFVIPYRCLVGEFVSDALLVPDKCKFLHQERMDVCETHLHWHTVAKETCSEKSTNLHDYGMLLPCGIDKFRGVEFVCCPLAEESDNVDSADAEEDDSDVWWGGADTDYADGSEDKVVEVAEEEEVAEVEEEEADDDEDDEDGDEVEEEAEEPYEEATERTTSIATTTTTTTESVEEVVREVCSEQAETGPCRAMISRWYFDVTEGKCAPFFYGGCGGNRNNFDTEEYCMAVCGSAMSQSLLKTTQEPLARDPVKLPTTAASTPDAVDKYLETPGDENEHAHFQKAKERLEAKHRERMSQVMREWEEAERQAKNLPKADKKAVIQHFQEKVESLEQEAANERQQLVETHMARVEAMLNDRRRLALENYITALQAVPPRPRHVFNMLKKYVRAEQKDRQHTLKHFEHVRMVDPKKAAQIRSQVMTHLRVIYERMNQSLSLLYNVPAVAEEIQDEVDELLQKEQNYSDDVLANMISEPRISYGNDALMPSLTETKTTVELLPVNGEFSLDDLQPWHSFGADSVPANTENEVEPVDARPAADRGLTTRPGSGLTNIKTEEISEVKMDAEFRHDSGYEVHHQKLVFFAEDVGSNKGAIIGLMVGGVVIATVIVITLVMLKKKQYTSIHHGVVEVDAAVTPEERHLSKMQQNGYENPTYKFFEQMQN

Structure (SMILES)	IC50 (Acetylcholinesterase) [nM]	inhibition [1] [%]	inhibition [2] [%]	inhibition at 10 µM [3] [%]	IC50 [4] [nM]	IC50 [5] [nM]
CCN(CC)Cc1ccc(C=C2Cc3cc(OC)c(OC)cc3C2=O)cc1	253	56	–	–	–	–
CCN(CC)Cc1ccc(C=C2Cc3ccc(OC)cc3C2=O)cc1	1100	37.7	8.3	–	–	–
CCN(CC)Cc1ccc(/C=C2\Cc3cc(OC)ccc3C2=O)cc1	113	7.4	–	32.8	–	–
CCN(CC)Cc1ccc(/C=C2\Cc3cc(OC)c(OC)cc3C2=O)cc1	63	–	–	49.6	783	–
CCN(CC)Cc1ccc(/C=C2/Cc3cc(OC)ccc3C2=O)cc1	1150	23.4	–	28.2	1940	–
O=c1c(O)c(-c2ccc(O)c(O)c2)oc2cc(O)cc(O)c12	–	84.4	–	–	–	–
CCN(CC)Cc1ccc(/C=C2\Cc3ccccc3C2=O)cc1	612	–	17.8	42.7	661	–
CCN(CC)Cc1ccc(/C=C2\Cc3ccc(OC)cc3C2=O)cc1	964	–	14.3	–	91	95
CCN(CC)Cc1ccc(C=C2Cc3ccccc3C2=O)cc1	1310	8.1	16.2	–	–	–
CCN(CC)Cc1ccc(C=C2Cc3cc(OC)ccc3C2=O)cc1	505	–	–	45.1	–	–
